Laboratory results taken from US20040038947A1, “Method of treating ischemia/reperfusion injury with nitroxyl donors” (The Gov. of the U.S. of America as represented by the Sec. …, priority 2002, published 2004).

Experiments:
[1] = test system: Isolated rat hearts; assay: Pre-ischemic cardiac function of isolated perfused rat hearts (Table 1); details: mean
Experimental: (§1) Isolated heart perfusion. Each animal was anesthetized with 1 g/kg urethane i.p. 10 min after heparin (2,500 U, i.m.) treatment. The chest was opened, and the heart was rapidly excised, placed in ice-cold buffer solution and weighed. Isolated rat hearts were attached to the perfusion apparatus and retrogradely perfused with oxygenated buffer solution at 37° C. The hearts were instrumented as previously described in Rastaldo et al., “P-450 metabolite of arachidonic acid mediates bradykinin-induced negative inotropic effect,” Am. J. Physiol., 280:H2823-H2832 (2001), and Paolocci et al. “cGMP-independent inotropic effects of nitric oxide and peroxynitrite donors: potential role for nitrosylation,” Am. J. Physiol., 279: H1982-H1988 (2000). The flow was maintained constant (9±2 mL/min/g wet weight) to reach a typical coronary perfusion pressure of 85-90 mm Hg. A constant proportion of 10% of the flow rate was applied by means of one of two perfusion pumps (Terumo, Tokyo, Japan) using a 50 mL syringe connected to the aortic cannula. Drug applications (see Experimental Protocols) were performed by switching from the syringe containing buffer alone to the syringe of the other pump containing the drug dissolved in the vehicle at a concentration 10× to the desired final concentration in the heart. A small hole in the left ventricular wall allowed drainage of the thebesian flow, and a polyvinyl-chloride balloon was placed into the left ventricle and connected to an electromanometer for recording of left ventricular pressure (LVP). The hearts were electrically paced at 280-300 bpm and kept in a temperature-controlled chamber (37° C.). Coronary perfusion pressure (CPP) and coronary flow were monitored with a second electromanometer and an electromagnetic flow-probe, respectively, both placed along the perfusion line. Left ventricular pressure, coronary flow and coronary perfusion pressure were recorded using a TEAC R-71 recorder, digitized at 1000 Hz and analyzed off-line with DataQ-Instruments/CODAS software, which allowed quantification of the maximum rate of increase of LVP during systole (dP/dtmax).
Hearts were perfused with Krebs-Henseleit solution gassed with 95% O2 and 5% CO2 of the following composition: 17.7 mM sodium bicarbonate, 127 mM NaCl, 5.1 mM KCl, 1.5 mM CaCl2, 1.26 mM MgCl2, 11 mM D-glucose, supplemented with 5 μg/mL lidocaine.
(§2) Experimental Protocols. Hearts were allowed to stabilize for 30 min, and baseline parameters were recorded. Typically, coronary flow was adjusted within the first 10 min and kept constant from thereon. After 30 min stabilization, hearts were randomly assigned to one of the treatment groups reported below (n=12 in each group), and then subjected to 30 min global, no-flow ischemia, followed by 30 min of reperfusion (I/R) (see FIG. 1). Pacing of the hearts was stopped at the beginning of the ischemic period and restarted after the third minute of reperfusion.
(§3) Hearts in the control group (Group 1) were perfused with buffer for an additional 29 min after stabilization. Group 2 hearts were exposed to AS (1 μM final concentration) for 19 min followed by a 10 min buffer wash-out period. Group 3 hearts were exposed to DEA/NO (0.5 μM final concentration) administered in the same manner as AS. The concentration of DEA/NO was only one half of that of AS since DEA/NO releases up to two moles of […] per mole of donor molecule. In Group 4, a train of three cycles of 3 min global ischemia followed by 5 min of reperfusion was applied after the stabilization phase, followed by a final 10 min buffer wash-out period (IPC protocol).
(§4) Group 5 hearts were exposed to the vehicle (NaOH, final concentration 100 nM) used to dissolve both AS and DEA/NO. To test the influence of switching the myocardial redox state on AS-induced effects, in an additional group of hearts (Group 6) AS was co-infused with N-acetyl-L-cysteine (NAC, 4 mM final concentration). For comparison, hearts were also exposed to NAC alone (Group 7). […]

[2] = test system: Isolated rat hearts; assay: Myocardial injury: infarct area by nitro blue tetrazolium staining
Experimental: as §2, §3, §4
To corroborate the data relative to myocardial injury, determined by LDH release, infarct areas were also assessed in a blinded fashion. […] The weight of the necrotic and non-necrotic tissues was then determined and the necrotic mass expressed as a percentage of total left ventricular mass.

[3] = test system: Isolated rat hearts; assay: Ventricular function (contracture, contractile recovery) of isolated rat hearts in 30 min global ischemia / 30 min reperfusion; details: for Maximal increment of LVEDP during reperfusion: compared to control, vehicle, NAC and NAC+AS treated hearts (p<0.05), FIG. 2B
Experimental: as §1, §2, §3
Group 5 hearts were exposed to the vehicle (NaOH, final concentration 100 nM) used to dissolve both AS and DEA/NO. […]

[4] = test system: Isolated rat hearts; assay: Myocardial injury: LDH release in coronary effluent during reperfusion; details: pre-treatment; control 686±14 U/g wet wt; FIG. 4A
Experimental: as §2
as §3, with “In Group 4, a train of three cycles of 3 min global ischemia followed by 5 min of reperfusion was applied after the stabilization phase, followed by a final 10 min buffer wash-out period (IPC protocol).” left out
Assessment of myocardial injury. […] LDH release was measured as previously described by Bergmeyer & Bernt, “Methods of Enzymatic Analysis,” Verlag Chemie (1974). Data are expressed as cumulative values for the entire reflow period.

[5] = test system: Isolated rat hearts; assay: Example 2: infarct size after ischemia/reperfusion, different set of isolated rat hearts; details: same protocol as AS in Example 1, only one rat heart per intervention, FIG. 5
Experimental: FIG. 5 is a graph showing infarct size following 30 min of global ischemia and 30 min reperfusion for interventions in a different set of isolated rat hearts for interventions with control; ischemic preconditioning (IP); IPA/NO; AS; and DEA/NO.
To corroborate the data relative to myocardial injury, determined by LDH release, infarct areas were also assessed in a blinded fashion. At the end of the course (30 min reperfusion), each heart was rapidly removed from the perfusion apparatus, and the LV dissected into 2-3 mm circumferential slices. Following 15 min of incubation at 37° C. in 0.1% solution of nitro blue tetrazolium in phosphate buffer as described in Ma et al., “Opposite effects of nitric oxide and nitroxyl on postischemic myocardial injury,” Proc. Natl. Acad. Sci., 96:14617-14622 (1999), unstained necrotic tissue was separated from the stained viable tissue. The areas of viable and necrotic tissue were carefully separate by and independent observer (D. Mancardi, C. Penna, or R. Rastaldo) who was not aware of the origin of the hearts. The weight of the necrotic and non-necrotic tissues was then determined and the necrotic mass expressed as a percentage of total left ventricular mass.
The same methods as employed in Example 1 were used to assess the ischemia/reperfusion injury reducing effects of the nitroxyl donor IPA/NO. […]

[6] = test system: isolated rat heart; assay: Example 2: coronary perfusion pressure during reperfusion; details: FIG. 6
Experimental: FIG. 6 is a graph showing the coronary perfusion pressures for the IPA/NO intervention of FIG. 5 and an intervention in an isolated rat heart with a vehicle for the same protocol as was used with AS and vehicle in FIG. 1. IPA/NO is represented by diamonds; vehicle is represented by squares.
Isolated heart perfusion. Each animal was anesthetized with 1 g/kg urethane i.p. 10 min after heparin (2,500 U, i.m.) treatment. The chest was opened, and the heart was rapidly excised, placed in ice-cold buffer solution and weighed. Isolated rat hearts were attached to the perfusion apparatus and retrogradely perfused with oxygenated buffer solution at 37° C. The hearts were instrumented as previously described in Rastaldo et al., “P-450 metabolite of arachidonic acid mediates bradykinin-induced negative inotropic effect,” Am. […] Coronary perfusion pressure (CPP) and coronary flow were monitored with a second electromanometer and an electromagnetic flow-probe, respectively, both placed along the perfusion line. Left ventricular pressure, coronary flow and coronary perfusion pressure were recorded using a TEAC R-71 recorder, digitized at 1000 Hz and analyzed off-line with DataQ-Instruments/CODAS software, which allowed quantification of the maximum rate of increase of LVP during systole (dP/dtmax). […]

[7] = Nitroxyl donation pH; type: physicochemical; details: donates from this pH to about 10
Description: “Nitroxyl donation pH” is the pH at which and above which a nitroxyl-donating compound donates nitroxyl.
Further, compounds are easily tested for nitroxyl donation with routine experiments. Although it is impractical to directly measure whether nitroxyl is donated, several tests are accepted for determining whether a compound donates nitroxyl. For example, the compound of interest can be placed in solution, for example in water, in a sealed container. After sufficient time for disassociation has elapsed, such as from several minutes to several hours, the headspace gas is withdrawn and analyzed to determine its composition, such as by gas chromatography and/or mass spectroscopy. […] Nitroxyl donation also can be detected by exposing the target donor to metmyoglobin (Mb^3+). Nitroxyl reacts with Mb^3+ to form an Mb^2+-NO complex, which can be detected by changes in the ultraviolet/visible spectrum or by Electron Paramagnetic Resonance (EPR). […]
Testing for nitroxyl donation in some cases is performed at a range of pHs to determine the nitroxyl donation pH of the nitroxyl-donating compound. […] After the lowest pH at which nitroxyl donation occurs in a first set of tests is found, additional tests can be performed with narrower ranges of pH around the first determined nitroxyl donation pH to obtain a more specific nitroxyl donation pH. […]

[8] = test system: anesthetized rabbits; details: administered during ischemia and 5 minutes prior to reperfusion; cited from earlier work
[9] = test system: rat renal tissue; details: administered during ischemia and 5 minutes before reperfusion; rat kidney; cited from earlier work
[10] = End of stabilization period (baseline of the group, before treatment)
[11] = Post-treatment (pre-ischemic), AS 1 μM, DEA/NO 0.5 μM, NAC 4 mM, 19 min then 10 min wash-out

SMILES	CPP (coronary perfusion pressure) [1, 10]	DP/dtmax [1, 10]	Developed LVP [1, 10]	LVEDP (left ventricular end-diastolic pressure) [1, 10]	CPP (coronary perfusion pressure) [1, 11]	DP/dtmax [1, 11]	Developed LVP [1, 11]	LVEDP (left ventricular end-diastolic pressure) [1, 11]	Maximal increment of LVEDP during reperfusion [3]	LDH release into the coronary venous effluent during reperfusion [4]	Nitroxyl donation pH (pH at and above which nitroxyl is donated) [7]	further results
CC(=O)N[C@@H](CS)C(=O)O [NAC, N-acetyl-L-cysteine]	88 mmHg	2760 mmHg/s	89 mmHg	8 mmHg	88 mmHg	2481 mmHg/s	86 mmHg	10 mmHg	–	–	–	Infarcted area, expressed as a percentage of the left ventricle ([2]; 30 min global ischemia, 30 min reperfusion, control 39±2%, FIG. 4): 45+2%
CCN(CC)/[N+]([O-])=N/O.CCNCC [DEA/NO, diethylamine diazeniumdiolate]	91 mmHg	3047 mmHg/s	98 mmHg	8 mmHg	90 mmHg	2976 mmHg/s	99 mmHg	9 mmHg	significantly lower	significantly reduced	–	Recovering contractile function (developed LVP, dP/dtmax) after ischemia/reperfusion ([3]; vs control group, p=0.08 for dP/dtmax, p=0.07 for developed LVP, DEA/NO 0.5 μM): less effective; Protective effect: infarct size change vs controls ([2]; DEA/NO 0.5 μM pre-ischemic, p<0.05 vs controls, weaker than AS or IPC): −30%
CC(C)N[N+]([O-])=N[O-].[Na+] [IPA/NO, isopropylamine/NO]	–	–	–	–	–	–	–	–	–	–	about 5.5	Infarct size reduction as compared to control [5]: about 36%; Coronary perfusion pressure during reperfusion [6]: returned to normal
[Na+].[Na+].[O-][N+]([O-])=NO [AS, sodium trioxodinitrate]	89 mmHg	3145 mmHg/s	99 mmHg	9 mmHg	88 mmHg	3223 mmHg/s	98 mmHg	10 mmHg	significantly lower	significantly reduced	about 3	Post-ischemic recovery of developed LVP ([3]; 30 min ischemia, 30 min reperfusion, vs pre-ischemic value, controls 38%, AS 1 μM pre-ischemic, FIG. 3A): about 55%; Post-ischemic recovery of dP/dtmax ([3]; 30 min ischemia, 30 min reperfusion, vs pre-ischemic value, controls 39%, AS 1 μM pre-ischemic, FIG. 3B): 57%; Infarct size reduction compared to controls ([2]; AS 1 μM pre-ischemic, p<0.01 vs controls): 55%; Effect on myocardial ischemia/reperfusion injury [8]: increased myocardial ischemia/reperfusion injury; Effect on neutrophil infiltration into renal tissue [9]: contributed to neutrophil infiltration into the tissue
